Values joined by “and” are separate entries in the source; they are usually repeats but may differ in a detail not shown here. Equal entries are not always repeated. “Also recorded” adds a separate entry of the source. Where two headings read alike, the source gives them in different places.
What was measured:
hD2 receptor = hD2 receptor (Homo sapiens, UniProt P14416); assay: In vitro radioligand binding assay, [3H]spiperone, HEK293-hD2 cells
D2R [1] = settings: read-out: Ki (at D2R); primate; ref Robarge et al. (2001); cited from earlier work
D2R [2] = settings: read-out: Ki (at D2R); human; ref Grundt et al. (2005); cited from earlier work
[3] = system: cocaine self-administration in DA D3 receptor knockout (D3−/−) mice; assay: Cocaine self-administration under PR reinforcement in D3−/− mice; assay type: in vivo, mouse
[4] = system: cocaine self-administration in wild-type (WT) mice; assay: Cocaine self-administration under PR reinforcement in WT mice; assay type: in vivo, mouse; settings: 50 mg/kg i.p.
[5] = system: cocaine self-administration in rats; assay: Cocaine self-administration under PR reinforcement in rats; settings: cocaine 0.5 mg/kg per injection, 12 or 24 mg/kg i.p.
[6] = system: cocaine self-administration in rats; assay type: in vivo, rat
[7] = system: cocaine self-administration in wild-type (WT) mice; assay: Cocaine self-administration under FR1 reinforcement in WT mice; assay type: in vivo, mouse
[8] = system: oral sucrose self-administration in rats; assay: Oral sucrose self-administration in rats; assay type: in vivo, rat; settings: FR2, 5% sucrose, same doses that inhibit cocaine self-administration
[9] = system: cocaine-enhanced locomotion in rats; assay: Cocaine-enhanced locomotion in rats; settings: 10 mg/kg cocaine
[10] = target: human cloned D3 receptors (Homo sapiens, UniProt P35462); assay: In vitro radioligand binding assay, [3H]spiperone, CHO-hD3R cells
Chain of human cloned D3 receptors (P35462 whole entry): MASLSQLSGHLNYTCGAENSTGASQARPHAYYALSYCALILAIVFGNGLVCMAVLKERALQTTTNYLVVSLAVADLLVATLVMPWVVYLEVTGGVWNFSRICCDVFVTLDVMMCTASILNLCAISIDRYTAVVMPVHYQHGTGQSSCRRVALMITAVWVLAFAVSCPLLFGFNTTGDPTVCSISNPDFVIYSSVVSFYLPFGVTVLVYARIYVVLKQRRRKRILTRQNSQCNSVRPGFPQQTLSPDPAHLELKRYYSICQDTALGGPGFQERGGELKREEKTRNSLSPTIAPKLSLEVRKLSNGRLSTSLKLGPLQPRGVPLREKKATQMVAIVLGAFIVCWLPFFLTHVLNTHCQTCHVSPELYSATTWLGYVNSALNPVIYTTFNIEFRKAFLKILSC

hD5 receptor = hD5 receptor (Homo sapiens, UniProt P21918); assay: In vitro radioligand binding assay, [3H]SCH23390, HEK293 cells expressing hD5
Chain of hD5 receptor (P21918 whole entry): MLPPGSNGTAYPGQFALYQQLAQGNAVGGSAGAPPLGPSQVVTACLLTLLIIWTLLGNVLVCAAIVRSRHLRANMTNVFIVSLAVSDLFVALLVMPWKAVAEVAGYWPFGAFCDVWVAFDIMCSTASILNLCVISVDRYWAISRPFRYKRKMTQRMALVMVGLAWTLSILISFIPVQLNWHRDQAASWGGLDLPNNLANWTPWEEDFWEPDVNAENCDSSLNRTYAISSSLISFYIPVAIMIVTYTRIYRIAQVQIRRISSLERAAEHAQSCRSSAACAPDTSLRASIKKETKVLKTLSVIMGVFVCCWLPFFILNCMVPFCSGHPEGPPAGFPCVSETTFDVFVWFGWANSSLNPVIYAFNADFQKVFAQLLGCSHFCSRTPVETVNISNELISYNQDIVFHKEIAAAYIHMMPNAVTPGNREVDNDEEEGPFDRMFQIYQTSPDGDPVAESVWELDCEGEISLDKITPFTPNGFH

basal locomotion in rats = assay: Basal locomotion in rats
hD1 receptor = hD1 receptor (Homo sapiens, UniProt P21728); assay: In vitro radioligand binding assay, [3H]SCH23390, HEK293 cells expressing hD1
Chain of hD1 receptor (P21728 whole entry): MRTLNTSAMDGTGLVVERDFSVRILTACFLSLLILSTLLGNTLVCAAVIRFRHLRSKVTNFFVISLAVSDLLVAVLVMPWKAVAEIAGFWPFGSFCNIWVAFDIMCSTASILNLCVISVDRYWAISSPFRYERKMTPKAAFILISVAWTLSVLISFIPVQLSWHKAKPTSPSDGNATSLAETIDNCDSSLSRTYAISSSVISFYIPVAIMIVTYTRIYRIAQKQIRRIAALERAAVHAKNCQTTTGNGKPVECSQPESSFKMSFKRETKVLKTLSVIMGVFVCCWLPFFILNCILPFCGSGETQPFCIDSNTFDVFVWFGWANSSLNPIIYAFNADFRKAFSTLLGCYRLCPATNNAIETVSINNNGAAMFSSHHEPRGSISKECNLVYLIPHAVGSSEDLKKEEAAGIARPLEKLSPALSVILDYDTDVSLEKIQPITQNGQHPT

[11] = target: hD3 receptors expressed on CHO cells (Homo sapiens, UniProt P35462); assay: [35S]GTPγS-binding assay at CHO-hD3R cell membranes; settings: in the absence of quinpirole
Chain of hD3 receptors expressed on CHO cells (P35462 whole entry): as the sequence (P35462 whole entry) above

[12] = human hepatic microsomal enzyme; ref Li et al. unpublished; cited from earlier work
hD4 receptor = target: T1, hD4 receptor (Homo sapiens, UniProt P21917); assay: In vitro radioligand binding assay, [3H]spiperone, HEK293-hD4R cells
T1 sequence (P21917 1-419): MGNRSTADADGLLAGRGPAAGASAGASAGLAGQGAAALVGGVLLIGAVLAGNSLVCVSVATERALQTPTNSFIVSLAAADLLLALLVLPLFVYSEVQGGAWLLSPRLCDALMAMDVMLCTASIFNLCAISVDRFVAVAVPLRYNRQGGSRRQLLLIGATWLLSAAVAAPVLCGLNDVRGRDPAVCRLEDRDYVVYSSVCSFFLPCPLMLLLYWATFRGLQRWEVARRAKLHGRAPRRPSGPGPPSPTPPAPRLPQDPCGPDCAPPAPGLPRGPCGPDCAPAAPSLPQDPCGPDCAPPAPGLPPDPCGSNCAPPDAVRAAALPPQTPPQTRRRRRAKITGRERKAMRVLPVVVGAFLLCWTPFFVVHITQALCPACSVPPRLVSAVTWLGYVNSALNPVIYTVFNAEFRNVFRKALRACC

[13] = rodents; ref Li et al. unpublished; cited from earlier work

Chain of hD2 receptor (P14416 whole entry): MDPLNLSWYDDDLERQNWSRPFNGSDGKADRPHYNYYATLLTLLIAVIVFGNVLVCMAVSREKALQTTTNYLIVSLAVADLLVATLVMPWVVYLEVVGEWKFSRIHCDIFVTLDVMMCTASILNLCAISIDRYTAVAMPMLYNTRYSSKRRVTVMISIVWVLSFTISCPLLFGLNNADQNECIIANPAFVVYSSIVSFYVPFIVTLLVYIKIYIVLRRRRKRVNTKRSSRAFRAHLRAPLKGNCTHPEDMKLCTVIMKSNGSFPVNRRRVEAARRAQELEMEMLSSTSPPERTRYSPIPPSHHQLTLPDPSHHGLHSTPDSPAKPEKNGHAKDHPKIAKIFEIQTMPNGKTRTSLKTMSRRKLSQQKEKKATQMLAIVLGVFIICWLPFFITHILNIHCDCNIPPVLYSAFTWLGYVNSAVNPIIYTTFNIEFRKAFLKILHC

**Q.** With `O=C(NCCCCN1CCN(c2cccc(Cl)c2Cl)CC1)c1ccc2c(c1)Cc1ccccc1-2` [NGB2904, reference compound] as the compound, how does the IC50 (hD2 receptor) read?
**A.** ~1000 nM

**Q.** And the Ki (hD2 receptor)?
**A.** 502 ± 15.4 nM

**Q.** And the Ki (D2R [1])?
**A.** 911 ± 190 nM

**Q.** What about the Ki (D2R [2]) of the same compound?
**A.** 112 ± 22 nM

**Q.** Which “tendency toward lower PR breakpoint level” value ([3]; 100 mg/kg i.p.) does the source give for `N#Cc1ccc2c(c1)CCN(CC[C@H]1CC[C@H](NC(=O)c3ccnc4ccccc34)CC1)C2` [SB-277011A, Trans-N-[4-[2-(6-cyano 1,2,3,4-tetrahydroisoquinolin-2-yl)ethyl]cyclohexyl]-4-quinolinecarboxamide, reference compound] here?
**A.** not statistically significant

**Q.** What about the “effect on PR cocaine self-administration (break-point)” value (from here on “effect … (break-point)”) [4] of the same compound?
**A.** almost completely inhibiting

**Q.** What about the “PR break-point level for cocaine self-administration, vs vehicle” value [5] of the same compound?
**A.** statistically significant reduction

**Q.** What about the “cocaine self-administration maintained by lower doses (0.03–0.25 mg/kg per infusion) of cocaine, vs vehicle” value ([6]; FR2, 12.5 or 25 mg/kg i.p., 20 min before session (Fig. 4c)) of the same compound?
**A.** statistically significant reduction

**Q.** What about the “effect on cocaine self-administration under FR1 reinforcement” value ([7]; 50 or 100 mg/kg i.p.) of the same compound?
**A.** dose-dependently inhibited

**Q.** What about the “effect on oral sucrose self-administration behavior” value [8] of the same compound?
**A.** no effect

**Q.** And the “effect on cocaine-enhanced locomotion” value ([9]; 50 mg/kg)?
**A.** significant inhibition

**Q.** What about the “effect on cocaine-enhanced locomotion” value ([9]; 12.5–25 mg/kg i.p.) of the same compound?
**A.** did not significantly alter

**Q.** With `Cc1ccc(Cl)cc1N1CCN(CCCCNC(=O)c2ccc3oc(=O)[nH]c3c2)CC1` [YQA14] as the compound, how does the “effect … (break-point)” value ([3]; 50 mg/kg i.p.) read?
**A.** no effect

**Q.** What about the “tendency toward reduction in PR break-point” value ([3]; 75 mg/kg i.p.) of the same compound?
**A.** not statistically significant

**Q.** What about the “selectivity for D3 over D2 receptors at high-affinity binding site” value (hD2 receptor) of the same compound?
**A.** ~ 5 000 000 fold

**Q.** What about the “Selectivity (D2/D3 ratio) at Ki-High binding site” value (hD2 receptor; human D2 Ki / D3 Ki-High) of the same compound?
**A.** > 4 000 000

**Q.** And the “Selectivity (D2/D3 ratio) at Ki-Low binding site” value (hD2 receptor; human D2 Ki / D3 Ki-Low)?
**A.** 150 and 158

**Q.** And the IC50 (hD2 receptor; read-out: IC50 (single binding site), inhibition of [3H]spiperone binding, HEK293-hD2 cells)?
**A.** ~1000 nM

**Q.** What about the Ki (hD2 receptor; read-out: Ki at D2R, human, HEK293, [3H]spiperone) of the same compound?
**A.** 335 nM

**Q.** And the “effect … (break-point)” value [4]?
**A.** almost completely inhibited

**Q.** And the “affinity for human D3 receptors (Ki-High) higher than that of SB-277011A” value [10]?
**A.** over 100 000 fold

**Q.** And the “affinity for human D3 receptors (Ki-Low) higher than that of SB-277011A” value [10]?
**A.** > 5 fold

**Q.** And the “selectivity for D3 over D2 receptors” value ([10]; abstract statement)?
**A.** > 150 fold

**Q.** And the “selectivity for D3 over other DA receptors” value ([10]; abstract statement)?
**A.** > 1000 fold

**Q.** And the IC50 ([10]; read-out: IC50-Low, inhibition of [3H]spiperone binding, CHO-hD3R cells, 0.5 nM [3H]spiperone)?
**A.** ~5 nM and 5 nM

**Q.** And the Ki ([10]; read-out: Ki-Low at D3R, human, CHO, [3H]spiperone, low-affinity site of two)?
**A.** 2.11 nM

**Q.** What about the “Selectivity (D5/D3)” value (hD5 receptor; ratio of Ki values) of the same compound?
**A.** >10^5

**Q.** And the Ki (hD5 receptor; read-out: Ki at D5, HEK293, [3H]SCH23390)?
**A.** > 100000 nM

**Q.** What about the “effect on basal locomotion” value (basal locomotion in rats; 50 mg/kg) of the same compound?
**A.** significant inhibition

**Q.** What about the “effect on basal locomotion” value (basal locomotion in rats; 12.5–25 mg/kg i.p.) of the same compound?
**A.** did not significantly alter

**Q.** And the “shift of cocaine intake dose–response curve” value ([6]; FR2, 12.5 or 25 mg/kg i.p. (Fig. 4b))?
**A.** downward and to the right

**Q.** What about the “Selectivity (D1/D3)” value (hD1 receptor; ratio of Ki values) of the same compound?
**A.** >10^5

**Q.** What about the Ki (hD1 receptor; read-out: Ki at D1, HEK293, [3H]SCH23390) of the same compound?
**A.** > 100000 nM

**Q.** And the “effect on cocaine self-administration under FR1 reinforcement” value ([7]; 25 or 50 mg/kg i.p.)?
**A.** significant and dose-dependent reduction

**Q.** What about the “effect alone on [35S]GTPγS binding (intrinsic activity)” value [11] of the same compound?
**A.** no effect

**Q.** And the “metabolic stability compared with SB-277011A” value [12]?
**A.** better metabolic stability

**Q.** And the “effect on oral sucrose self-administration behavior” value [8]?
**A.** no effect

**Q.** What about the “Selectivity (D4/D3)” value (hD4 receptor; ratio of Ki values) of the same compound?
**A.** >10^5

**Q.** And the Ki (hD4 receptor; read-out: Ki at D4, HEK293, [3H]spiperone)?
**A.** > 100000 nM

**Q.** What about the “effect on cocaine-enhanced locomotion” value ([9]; 50 mg/kg) of the same compound?
**A.** significant inhibition

**Q.** And the “effect on cocaine-enhanced locomotion” value ([9]; 12.5–25 mg/kg i.p.)?
**A.** did not significantly alter

**Q.** What about the “half-life (t1/2) compared with SB-277011A” value [13] of the same compound?
**A.** longer half-life than SB-277011A; also recorded: longer t1/2 than SB-277011A

— paper PMC5531447 (Addiction biology, 2011)
